Test results reported in patent publication US12503455B2, “Nucleic acid-binding photoprobes and uses thereof” (Arrakis Therapeutics, Inc., priority 2017, dated 2025).

Legend:
Type in all cases: binding
[1] = system: Aptamer 21 spiked into polyA+ RNA extract; assay: Capture of Aptamer 21 from PolyA+ RNA extract; conditions: versus warhead-only control ARK-2059
Protocol: Total RNA was extracted from a pellet of 5×10^6 HepG2 cells using the ReliaPrep mini-prep kit (Promega) according to the manufacturer's standard protocol. The polyA+ RNA fraction was isolated from 50 μL sample of total RNA at 454 ng/μL using the magnetic mRNA isolation kit (New England Biolabs, cat #S1550) according to the manufacturer's standard protocol using 450 μL of lysis buffer and 100 μL of beads.
A sample of folded aptamer 21 RNA was spiked into a sample of polyA+ RNA extract at a final concentration of 1 nM aptamer 21 and 3 ng/μL polyA+ RNA. […]
Sequencing was performed on a single Illumina HiSeq 4000 lane with 150 bp paired-end reads using the standard manufacturer protocol.
Stitched reads were then processed with Cutadapt (http://dx.doi.org/10.14806/ej.17.1.200) with at least 5-nts of overlap and a maximum of 20% mismatches to simultaneously 1) define a unique 6-nt unique molecular identifier (UMI) in the correct adapter context (ATATAGGN6AGATCGG) (SEQ. […] UMIs were appended to read names, and reads were mapped the against the genome and transcriptome references (plus Aptamer 21) using the STAR aligner (http://dx.doi.org/10.1093/bioinformatics/bts635) with at most 10% mismatches. Groups of reads with identical or near-identical UMIs were then collapsed using the Directional Adjacency methods of UMI-tools (http://dx.doi.org/10.1101/gr.209601.116) with default parameters. […]

Aptamer 21 [2] = assay: Capture of Aptamer 21 with click-biotinylated probes; conditions: Aptamer 21 or Aptamer 21-E
Protocol: A 50 μL sample of 1 μM folded Aptamer 21 or Aptamer 21-E solution in folding buffer (20 mM TrisHCl pH 8, 100 mM KCl, 3 mM MgCl2) was added to a 0.5 μL aliquot of 0.5 mM ARK-729, ARK-2058, ARK-816, or ARK-2059 in DMSO or a DMSO-only control. The solution was incubated at 37° C. for 1 h and then irradiated with long wave UV light (˜365 nm) for 30 min in a UV crosslinker (Fisher Scientific). To this solution was added 0.5 μL of 10 mM DBCO-biotin (Click Chemistry Tools, cat. #A105) and 2 μL of 0.5 M EDTA pH 8 and then the solution was incubated at 65° C. for 2 h. The RNA was ethanol precipitated by adding 35 μL of water, 2 uL of 5 mg/mL glycogen, 10 μL 3 M NaOAc pH 5, and 250 μL ethanol, incubating at −80° C. for 1 h, centrifuging at 20000×g for 30 min, washing the pellet twice with 500 μL of 70% ethanol, and then air drying the pellet.
The RNA pellet was redissolved in 50 μL of 1× bind/wash buffer (20 mM TrisHCl pH 7, 100 mM KCl, 0.1% Tween-20). A 50 μL aliquot of MyOne Streptavidin C1 Dynabead slurry (Thermo) was captured on a magnet, washed twice with 50 μL of 1× bind/wash buffer, and then resuspended in 50 μL of the crosslinked RNA sample. The bead suspension was rotated at room temperature for 30 min and then washed twice with 100 μL of 1× bind/wash solution. […]

PreQ1 RNA = assay: Reverse transcriptase pausing gel assay of photo-crosslinking to PreQ1 RNA; conditions: 1 uM RNA, 9 uM PreQ1 probe, UV ~360 nm
Protocol: (§1) A solution of RNA at 2 to 5 μM in nuclease-free water was heated to 95° C. for 3 min and then cooled on ice for 2 min. This solution was diluted with ½ volume of 3×RNA folding buffer (60 mM TrisHCl pH 8, 300 mM KCl, 9 mM MgCl2) and incubated at 37° C. for 20 min. Folding was carried out immediately before use of the RNA in each experiment. In cases where a mixture of RNA molecules was used in vitro the RNAs were folded separately and then combined prior to the probing experiment.
[…] The sample was then irradiated with long wave UV light (˜365 nm) for 30 min in a UV crosslinker (Fisher Scientific).
(§2) A 3.75 μL aliquot of 10 μM reverse transcription primer was added to the cross-linked RNA sample, which was then incubated for 5 min at 65° C. and then cooled on ice. The sample was then diluted to a final volume of 60 μL and final buffer concentration of 1× Protoscript-II buffer (New England Biolabs), 0.5 mM dNTPs, 10 mM DTT, 0.4 U/μL RNase Inhibitor (New England Biolabs), and 10 U/μL Protoscript-II (New England Biolabs). The reaction was incubated at 45° C. for 2 h, 65° C. for 20 min, and then 4° C.
The RNA was hydrolyzed by the addition of 4.8 μL of 2.5 M NaOH and heating at 95° C. for 5 min. […]
The cDNA pellet was resuspended in 12 μL of 1×TBE-urea sample loading buffer (Bio-Rad) and heated to 95° C. for 5 min. […] The gel fluorescence was imaged on an Azure c600 instrument.

Aptamer 21 [3] = assay: Reverse transcriptase pausing (drop-off) gel assay of photo-crosslinking to Aptamer 21; conditions: 1 uM RNA, 10 uM probe (9 uM PreQ1 probe), UV ~360 nm
Protocol: as §1
Folded RNA (1 μM) was incubated with the photoaffinity probe (10 μM) in total 25 μL of buffer (20 mM TrisHCl pH 8, 100 mM KCl, 3 mM MgCl2) with 2.5% DMSO for 30 min at 37° C. to allow binding to come to equilibrium. The sample was then irradiated with long wave UV light (˜365 nm) for 30 min in a UV crosslinker (Fisher Scientific).
as §2
The RNA was hydrolyzed by the addition of 4.8 μL of 2.5 M NaOH and heating at 95° C. for 5 min. The reaction was quenched by the addition of 0.9 μL of acetic acid. The cDNA was precipitated by the addition of 6.6 μL of 3 M sodium acetate pH 5 and 181 μL ethanol, cooling to −80° C. for 1 h, and then centrifuging at 20,500×g at 4° C. for 30 min. The cDNA pellet was washed twice with 500 μL of 70% ethanol and then air dried for 5 min.
The cDNA pellet was resuspended in 12 μL of 1×TBE-urea sample loading buffer (Bio-Rad) and heated to 95° C. for 5 min. The sample was then run on a pre-cast 8.6×6.7 cm TBE-urea 10% PAGE gel (Bio-Rad) at 120 V until the lower bromophenol blue dye reached the bottom of the gel. The gel was stained with 1×SYBR-gold (Invitrogen) in 1×TBE buffer at room temperature for 20 min covered from light. The gel fluorescence was imaged on an Azure c600 instrument.

| SMILES | enrichment analysis of Aptamer 21 from PolyA+ RNA extract ([1]; avidin capture, next-generation sequencing) | RT pausing ratio peaks on Aptamer 21 spiked into PolyA+ RNA extract ([1]; extract from HepG2 cells) | RT pausing peaks after click-biotinylation and avidin bead enrichment (Aptamer 21 [2]) | cross-linking to PreQ1 RNA (RT pausing) (PreQ1 RNA) | cross-linking with Apt21 RNA (RT pausing) (Aptamer 21 [3]) |
| --- | --- | --- | --- | --- | --- |
| COC(=O)C1=C(COCc2cn(CCOCCOCCC(=O)NCCC3(CCN=[N+]=[N-])N=N3)nn2)NC(c2ccncc2)=NC1c1ccc(F)cc1Cl (centres unmarked) [ARK-816] | Enrichment of the sites of probe-specific RT pausing on Aptamer 21 was observed | observed at the same positions as for isolated Aptamer 21 | RT pausing peaks specific to Aptamer 21 |  |  |
| CC1(CCC(=O)NCCOCCOCCNCc2c[nH]c3nc(N)[nH]c(=O)c23)N=N1 [I-23] |  |  |  | does not show cross-linking | does not show cross-linking |
